Experimental data: PubChem BioAssay (NCI)
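96-well plates; 48 h exposure; 5 concentrations. Endpoints by linear interpolation between flanking doses. Not reached: highest tested concentration assigned. GI50: concentration for 50% inhibition of growth. TGI is the concentration that stops growth completely.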

Assays:
Assay in all cases: NCI tumour cell line growth inhibition, 48 h
[1] = system: HOP-18 NSCLC
[2] = system: KM20L2 colon
[3] = system: LXFL 529 NSCLC
[4] = system: M19-MEL melanoma
[5] = system: DLD-1 colon
[6] = system: DU-145 prostate
[7] = system: MDA-MB-231 breast
[8] = system: MDA-MB-435
[9] = system: NCI/ADR-RES ovarian
[10] = system: T-47D breast

SMILES | TGI [1] | TGI [2] | TGI [3] | TGI [4] | TGI [5] | further results
N#CCc1nc2c(s1)C(=O)c1ccccc1C2=O | 28.3 µM | > 100 µM | 28.2 µM | 11.4 µM |  | 
C/C(=N\N=C(N)N)c1sc(-c2nc(C)c(/C(C)=N/N=C(N)N)s2)nc1C | > 100 µM | > 100 µM | > 100 µM | > 100 µM | > 100 µM | 
NC(=O)Cn1c(=O)[nH]c(=O)c2[nH]cnc21 | > 100 µM | > 100 µM | > 100 µM | > 100 µM |  | 
COC(=N)/C(=C1\OC(N)=C(c2ccc(Cl)cc2)C1=O)c1ccc(Cl)cc1 | > 100 µM | > 100 µM | > 100 µM | > 100 µM | > 100 µM | 
Cc1ccc(C)c(NC(=O)CCc2n[nH]c(=S)o2)c1 | > 100 µM | > 100 µM | > 100 µM | > 100 µM | > 100 µM | 
O=C1CCCc2c(O)ccc(O)c21 | > 100 µM | > 100 µM | > 100 µM | > 100 µM | > 100 µM | 
C[P+](C)(CC(F)(F)F)c1ccccc1 | > 100 µM | > 100 µM | > 100 µM | > 100 µM | > 100 µM | 
Cc1ccc(C)c2sc3cc(=O)ccc-3nc12 | > 100 µM | > 100 µM | > 100 µM | 31.1 µM | > 100 µM | 
O=C(NNc1ccc([N+](=O)[O-])cc1)C1OC(CO)C(O)C1O (stereo not drawn) | > 100 µM | > 100 µM | > 100 µM | > 100 µM | > 100 µM | 
CC1=CC(=O)c2[nH]c3ccccc3c2C1=O | 7.5 µM | > 25 µM | 7.63 µM |  | 8.82 µM | GI50 [5]: 5.06 µM; GI50 [1]: 3.35 µM; GI50 [3]: 4.22 µM
Clc1ccc(CCN2CCOCC2)c(Cl)c1 | > 100 µM | > 100 µM |  | > 100 µM | > 100 µM | 
Clc1cccc(C2SCc3nc4ccccc4n32)c1Cl (stereo not drawn) | 33.1 µM | 34.7 µM | 30.3 µM | 29.6 µM | 32.4 µM | 
O=C1C=Cc2noc3cccc1c23 | 33.6 µM | 34 µM | 4.9 µM | 11.2 µM | 3.13 µM | 
Cc1nc(Nc2ccc([N+](=O)[O-])cc2)sc1C(=O)/C=C/c1ccc(N(C)C)cc1 | > 100 µM | > 100 µM |  | > 100 µM | > 100 µM | 
N#CC(/C(=N\NC(N)=S)C(=O)NC1C2CC3CC(C2)CC1C3)c1ccc(Cl)cc1 (stereo not drawn) | > 100 µM | > 100 µM | > 100 µM | > 100 µM | > 100 µM | 
CCCCCCCCSC(SCCCCCCCC)=C1C(=O)N(c2ccccc2)N=C1C | > 100 µM | > 100 µM | > 100 µM | > 100 µM | 50 µM | 

SMILES | TGI [1] | TGI [2] | TGI [3] | TGI [4] | TGI [5] | further results
CN(C)/C(=N/C(=O)Nc1ccccc1)SCc1ccccc1 | > 100 µM |  | > 100 µM | > 100 µM | > 100 µM | 
Nc1nc(Cl)cc(NCCCCCCCCCCNc2cc(Cl)nc(N)n2)n1 | > 100 µM | > 100 µM | > 100 µM | > 100 µM | > 100 µM | 
S=C1OC2C3C4CC5C3C(O1)C1C5C4C21 (stereo not drawn) | > 100 µM | > 100 µM | > 100 µM | > 100 µM | > 100 µM | 
COS(=O)CCOC(=O)c1ccccc1SSc1ccccc1C(=O)OCCS(=O)OC (stereo not drawn) | > 100 µM | > 100 µM | 47.2 µM | > 100 µM | > 100 µM | 
OCC1CC2CC1C1(C2)OCCO1 (stereo not drawn) | > 100 µM | > 100 µM | > 100 µM | > 100 µM | > 100 µM | 
O=C(O)c1oc2ccc([N+](=O)[O-])c3c2c1CCC3 | > 100 µM | > 100 µM | > 100 µM | > 100 µM | > 100 µM | 
C(=C1/CCCCC([n+]2ccccc2)=N1)/c1ccccc1 | > 100 µM | > 100 µM | > 100 µM | > 100 µM | > 100 µM | 
O=C(O)CNS(=O)(=O)c1ccc(NC(=O)c2cccc([N+](=O)[O-])c2)cc1 | > 100 µM | > 100 µM | > 100 µM | > 100 µM | > 100 µM | 
CCCC/C(C)=N/NC(N)=S | > 100 µM | > 100 µM | > 100 µM | > 100 µM | > 100 µM | 
COc1ccc(-c2nc(N)nc(-c3cc(C)ccc3O)c2Cl)cc1 | > 100 µM | > 100 µM | > 100 µM | > 100 µM | > 100 µM | 
COc1ccccc1OCC(COC(=O)Nc1ccc(C)cc1)OC(=O)Nc1ccc(C)cc1 (stereo not drawn) | 40.3 µM | 50 µM | > 100 µM |  | 31.8 µM | 
OCC(O)C(OC1OC(CO)C(O)C(O)C1O)c1nn(-c2ccc(F)cc2)c2nc3cc(Cl)c(Cl)cc3cc12 (stereo not drawn) |  | > 100 µM | > 100 µM | > 100 µM | > 100 µM | 
CC(=O)Nc1[nH]c(=O)[nH]c(=O)c1N(C(C)=O)C(C)=O |  | > 100 µM | > 100 µM | > 100 µM | > 100 µM | 
CC(C)S(=O)(=O)n1c(N)nc2ccc(/C(=N/O)c3ccccc3)cc21 |  | 31.8 µM | > 100 µM | > 100 µM | > 100 µM | 
COc1ccc2c(c1)[n+]([O-])c(-c1ccc(Cl)c(Cl)c1)c(N)[n+]2[O-] | > 100 µM | > 100 µM | > 100 µM | > 100 µM | > 100 µM | 
O=C(O)C(O)C(O)C1[O][Sb][O]C1CO (stereo not drawn) | > 100 µM | > 100 µM | > 100 µM | 31 µM | > 100 µM | GI50 [5]: > 100 µM; GI50 [6]: > 100 µM; TGI [6]: > 100 µM; GI50 [1]: > 100 µM; GI50 [2]: > 100 µM; GI50 [3]: > 89.2 µM; GI50 [4]: 9.07 µM; GI50 [7]: > 100 µM; TGI [7]: > 100 µM; GI50 [8]: > 100 µM; TGI [8]: > 100 µM; GI50 [9]: > 100 µM; TGI [9]: > 100 µM; GI50 [10]: > 100 µM; TGI [10]: > 100 µM
